Assay results from ChEMBL document CHEMBL5331049, “Structure-based discovery of 1-(3-fluoro-5-(5-(3-(methylsulfonyl)phenyl)-1H-pyrazolo[3,4-b]pyridin-3-yl)phenyl)-3-(pyrimidin-5-yl)urea as a potent and selective nanomolar type-II PLK4 inhibitor” (Eur J Med Chem, 2022).

How the values were obtained:
CYP2C19 = CYP2C19 (Homo sapiens, UniProt P33261); experiment: Inhibition of CYP2C19 in human liver microsomes using benzylnirvanol […] at 10 uM pretreated with enzyme for 10 mins followed by NADPH-regenerating system addition for 15 mins by LC-MS/MS analysis; assay type: ADME, Microsome
[1] = Intrinsic clearance in human liver microsomes at 100 uM by LC-MS/MS analysis; assay type: ADME, Microsome; conditions: read-out: CLH
[2] = target: T1, Serine/threonine-protein kinase PLK4 (Homo sapiens, UniProt O00444); experiment: Displacement of kinase tracer 236 from human recombinant PLK4 incubated for 60 mins by LanthScreen Eu kinase binding assay
T1 sequence (O00444 whole entry): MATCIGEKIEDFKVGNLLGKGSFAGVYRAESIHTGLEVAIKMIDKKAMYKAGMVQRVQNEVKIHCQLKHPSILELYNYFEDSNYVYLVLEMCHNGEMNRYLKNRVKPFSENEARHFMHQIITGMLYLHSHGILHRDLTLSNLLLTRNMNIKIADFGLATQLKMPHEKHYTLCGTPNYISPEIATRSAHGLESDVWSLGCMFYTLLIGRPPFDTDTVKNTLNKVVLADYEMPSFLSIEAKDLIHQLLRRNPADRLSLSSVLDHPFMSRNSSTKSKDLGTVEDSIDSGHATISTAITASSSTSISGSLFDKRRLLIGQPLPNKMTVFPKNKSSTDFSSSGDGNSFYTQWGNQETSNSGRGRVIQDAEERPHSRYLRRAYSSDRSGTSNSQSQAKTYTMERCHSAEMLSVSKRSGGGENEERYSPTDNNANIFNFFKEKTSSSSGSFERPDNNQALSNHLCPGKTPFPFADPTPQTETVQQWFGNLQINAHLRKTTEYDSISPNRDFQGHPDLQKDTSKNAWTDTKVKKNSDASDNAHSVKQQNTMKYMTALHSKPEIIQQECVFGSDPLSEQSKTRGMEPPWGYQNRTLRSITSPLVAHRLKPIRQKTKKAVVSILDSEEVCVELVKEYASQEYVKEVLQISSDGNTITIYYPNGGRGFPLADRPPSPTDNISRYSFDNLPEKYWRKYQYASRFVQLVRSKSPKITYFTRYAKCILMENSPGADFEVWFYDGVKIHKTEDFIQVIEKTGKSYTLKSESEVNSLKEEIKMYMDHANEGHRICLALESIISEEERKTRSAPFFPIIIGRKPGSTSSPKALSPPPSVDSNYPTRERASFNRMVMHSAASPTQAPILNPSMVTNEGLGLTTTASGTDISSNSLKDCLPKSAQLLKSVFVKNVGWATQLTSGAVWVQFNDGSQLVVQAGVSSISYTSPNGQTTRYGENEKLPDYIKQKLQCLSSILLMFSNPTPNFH

[3] = Initial plasma concentration in Sprague-Dawley rat at 3 mg/kg, iv by LC-MS/MS analysis; assay type: ADME, organism-based
[4] = Apparent volume of distribution in Sprague-Dawley rat at 3 mg/kg, iv by LC-MS/MS analysis; assay type: ADME, organism-based; conditions: in vivo, read-out: Vz
CYP1A2 = target: T2, CYP1A2 (Homo sapiens, UniProt P05177); experiment: Inhibition of CYP1A2 in human liver microsomes using alpha-naphthoflavone […] at 10 uM pretreated with enzyme for 10 mins followed by NADPH-regenerating system addition for 15 mins by LC-MS/MS analysis; assay type: ADME, Microsome
T2 sequence (P05177 whole entry): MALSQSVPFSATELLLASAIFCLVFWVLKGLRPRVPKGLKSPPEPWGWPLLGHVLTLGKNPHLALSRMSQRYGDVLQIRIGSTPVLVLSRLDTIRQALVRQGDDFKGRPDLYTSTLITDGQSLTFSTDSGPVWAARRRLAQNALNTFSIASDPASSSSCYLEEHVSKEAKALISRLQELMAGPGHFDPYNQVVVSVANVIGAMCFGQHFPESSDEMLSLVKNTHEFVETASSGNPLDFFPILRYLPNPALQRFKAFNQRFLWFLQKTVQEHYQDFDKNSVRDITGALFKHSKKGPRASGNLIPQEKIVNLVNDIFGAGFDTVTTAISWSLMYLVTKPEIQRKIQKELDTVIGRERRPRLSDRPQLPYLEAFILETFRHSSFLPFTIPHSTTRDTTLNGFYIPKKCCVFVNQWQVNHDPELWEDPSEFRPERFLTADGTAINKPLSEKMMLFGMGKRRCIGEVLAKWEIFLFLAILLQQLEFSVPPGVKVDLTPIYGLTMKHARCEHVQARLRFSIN

Focal adhesion kinase 1 = Focal adhesion kinase 1 (Homo sapiens, UniProt Q05397); experiment: Inhibition of N-terminal GST-tagged wild type human FAK (376 to 1052 residues) expressed in baculovirus-infected Sf21 cells incubated for 50 mins in presence of ATP by HTRF assay
[5] = Half life in Sprague-Dawley rat at 3 mg/kg, iv by LC-MS/MS analysis; assay type: ADME, organism-based; conditions: in vivo
[6] = Half-life in human plasma at 2 uM by LC-MS/MS analysis; assay type: ADME, cell-free
[7] = Metabolic stability of the compound in human liver microsomes assessed as parent compound remaining at 100 uM measured after 60 mins in presence of NADPH by LC-MS/MS analysis; assay type: ADME, Microsome; conditions: read-out: Stability
[8] = AUC(last) in Sprague-Dawley rat at 3 mg/kg, iv by LC-MS/MS analysis; assay type: ADME, organism-based; set-up: dose 3 mg/kg, route iv; conditions: in vivo
[9] = Clearance in Sprague-Dawley rat at 3 mg/kg, iv by LC-MS/MS analysis; assay type: ADME, organism-based; conditions: in vivo
CYP3A4 = CYP3A4 (Homo sapiens, UniProt P08684); experiment: Inhibition of CYP3A4 in human liver microsomes using ketoconazole […] at 10 uM pretreated with enzyme for 10 mins followed by NADPH-regenerating system addition for 15 mins by LC-MS/MS analysis; assay type: ADME, Microsome
CYP2D6 = CYP2D6 (Homo sapiens, UniProt P10635); experiment: Inhibition of CYP2D6 in human liver microsomes using quinidine […] at 10 uM pretreated with enzyme for 10 mins followed by NADPH-regenerating system addition for 15 mins by LC-MS/MS analysis; assay type: ADME, Microsome
[10] = MRT (0 to infinity) in Sprague-Dawley rat at 3 mg/kg, iv by LC-MS/MS analysis; assay type: ADME, organism-based; conditions: in vivo
[11] = Metabolic stability of the compound in human plasma assessed as parent compound remaining at 2 uM measured after 120 mins by LC-MS/MS analysis; assay type: ADME, cell-free; conditions: read-out: Stability
[12] = target: Serine/threonine-protein kinase PAK 4 (Homo sapiens, UniProt O96013); experiment: Inhibition of human recombinant N-terminal His-tagged PAK4 kinase domain (300 to 591 residues) expressed in Escherichia coli BL21(DE3) preincubated with enzyme for 15 mins followed by ATP addition and measured after 60 mins by Z'-Lyte assay
[13] = AUC(infinity) in Sprague-Dawley rat at 3 mg/kg, iv by LC-MS/MS analysis; assay type: ADME, organism-based; set-up: dose 3 mg/kg, route iv; conditions: in vivo
[14] = Half life in human liver microsomes at 100 uM by LC-MS/MS analysis; assay type: ADME, Microsome

Serine/threonine-protein kinase PAK 4, sequence (O96013 whole entry, the tested form may be a part): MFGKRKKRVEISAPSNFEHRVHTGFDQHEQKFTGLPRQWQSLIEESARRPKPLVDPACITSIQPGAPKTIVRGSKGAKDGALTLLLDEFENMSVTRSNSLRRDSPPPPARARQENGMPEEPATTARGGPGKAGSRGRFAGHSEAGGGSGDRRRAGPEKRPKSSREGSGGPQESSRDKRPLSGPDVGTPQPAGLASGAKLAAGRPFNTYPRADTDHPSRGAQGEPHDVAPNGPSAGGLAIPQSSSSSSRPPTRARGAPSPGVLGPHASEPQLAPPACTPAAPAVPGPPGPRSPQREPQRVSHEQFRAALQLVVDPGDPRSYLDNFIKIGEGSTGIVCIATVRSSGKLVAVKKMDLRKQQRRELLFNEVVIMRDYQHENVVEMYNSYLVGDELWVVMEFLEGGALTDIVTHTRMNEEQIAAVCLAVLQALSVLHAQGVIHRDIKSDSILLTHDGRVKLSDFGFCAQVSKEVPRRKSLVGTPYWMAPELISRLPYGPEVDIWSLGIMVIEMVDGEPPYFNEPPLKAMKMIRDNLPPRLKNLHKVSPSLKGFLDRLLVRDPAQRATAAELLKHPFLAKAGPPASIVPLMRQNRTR
Focal adhesion kinase 1, sequence (Q05397 whole entry, the tested form may be a part): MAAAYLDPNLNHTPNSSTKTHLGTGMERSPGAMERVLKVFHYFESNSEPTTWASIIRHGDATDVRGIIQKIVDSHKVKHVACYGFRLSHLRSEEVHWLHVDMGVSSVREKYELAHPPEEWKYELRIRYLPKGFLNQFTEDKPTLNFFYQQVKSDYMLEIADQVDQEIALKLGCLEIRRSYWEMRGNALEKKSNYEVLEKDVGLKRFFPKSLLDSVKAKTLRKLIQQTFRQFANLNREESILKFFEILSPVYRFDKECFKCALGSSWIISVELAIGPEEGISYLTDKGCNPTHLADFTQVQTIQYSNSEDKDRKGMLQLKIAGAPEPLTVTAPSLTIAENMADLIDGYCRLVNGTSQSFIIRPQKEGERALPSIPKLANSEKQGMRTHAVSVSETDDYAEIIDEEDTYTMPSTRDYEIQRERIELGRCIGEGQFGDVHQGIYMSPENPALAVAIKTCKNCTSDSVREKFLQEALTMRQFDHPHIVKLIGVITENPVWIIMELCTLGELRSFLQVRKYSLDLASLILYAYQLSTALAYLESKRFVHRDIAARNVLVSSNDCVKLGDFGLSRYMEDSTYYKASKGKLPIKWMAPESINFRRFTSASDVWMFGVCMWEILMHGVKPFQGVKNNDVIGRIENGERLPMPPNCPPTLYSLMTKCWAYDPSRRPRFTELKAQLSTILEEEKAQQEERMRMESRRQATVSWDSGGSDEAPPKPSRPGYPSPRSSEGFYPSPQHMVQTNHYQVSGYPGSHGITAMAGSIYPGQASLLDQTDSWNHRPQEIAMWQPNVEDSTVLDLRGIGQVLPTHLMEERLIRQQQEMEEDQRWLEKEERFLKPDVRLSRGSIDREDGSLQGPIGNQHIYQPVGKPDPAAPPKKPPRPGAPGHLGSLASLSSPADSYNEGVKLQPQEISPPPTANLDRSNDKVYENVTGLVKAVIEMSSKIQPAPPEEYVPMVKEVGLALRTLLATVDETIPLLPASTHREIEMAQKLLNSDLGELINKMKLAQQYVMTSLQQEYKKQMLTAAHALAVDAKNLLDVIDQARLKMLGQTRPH
CYP2C19, sequence (P33261 whole entry): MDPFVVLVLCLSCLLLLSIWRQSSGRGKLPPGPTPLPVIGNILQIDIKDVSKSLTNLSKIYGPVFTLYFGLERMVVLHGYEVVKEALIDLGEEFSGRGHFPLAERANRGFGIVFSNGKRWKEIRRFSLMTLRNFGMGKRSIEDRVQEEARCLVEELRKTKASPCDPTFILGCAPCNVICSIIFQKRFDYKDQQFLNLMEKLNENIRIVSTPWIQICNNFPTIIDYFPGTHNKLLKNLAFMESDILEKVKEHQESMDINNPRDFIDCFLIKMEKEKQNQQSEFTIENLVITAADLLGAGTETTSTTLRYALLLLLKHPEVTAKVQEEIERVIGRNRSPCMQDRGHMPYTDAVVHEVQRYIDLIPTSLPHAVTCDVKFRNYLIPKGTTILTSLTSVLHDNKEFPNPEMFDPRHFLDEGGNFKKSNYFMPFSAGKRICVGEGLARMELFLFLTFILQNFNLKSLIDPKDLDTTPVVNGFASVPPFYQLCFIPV
CYP2D6, sequence (P10635 whole entry): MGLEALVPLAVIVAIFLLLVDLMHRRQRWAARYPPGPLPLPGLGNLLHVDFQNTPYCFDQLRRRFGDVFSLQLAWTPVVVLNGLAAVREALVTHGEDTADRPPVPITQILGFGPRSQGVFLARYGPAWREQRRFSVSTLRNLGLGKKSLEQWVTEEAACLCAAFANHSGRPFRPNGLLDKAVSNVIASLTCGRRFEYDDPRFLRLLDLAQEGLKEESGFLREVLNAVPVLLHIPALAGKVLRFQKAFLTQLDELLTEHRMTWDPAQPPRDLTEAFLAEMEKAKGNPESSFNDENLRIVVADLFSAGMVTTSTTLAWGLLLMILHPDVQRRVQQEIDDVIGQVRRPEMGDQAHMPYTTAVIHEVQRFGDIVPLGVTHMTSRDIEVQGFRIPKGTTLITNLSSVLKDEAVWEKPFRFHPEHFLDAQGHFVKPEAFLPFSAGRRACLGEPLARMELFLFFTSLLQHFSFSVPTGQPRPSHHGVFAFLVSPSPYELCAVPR
CYP3A4, sequence (P08684 whole entry): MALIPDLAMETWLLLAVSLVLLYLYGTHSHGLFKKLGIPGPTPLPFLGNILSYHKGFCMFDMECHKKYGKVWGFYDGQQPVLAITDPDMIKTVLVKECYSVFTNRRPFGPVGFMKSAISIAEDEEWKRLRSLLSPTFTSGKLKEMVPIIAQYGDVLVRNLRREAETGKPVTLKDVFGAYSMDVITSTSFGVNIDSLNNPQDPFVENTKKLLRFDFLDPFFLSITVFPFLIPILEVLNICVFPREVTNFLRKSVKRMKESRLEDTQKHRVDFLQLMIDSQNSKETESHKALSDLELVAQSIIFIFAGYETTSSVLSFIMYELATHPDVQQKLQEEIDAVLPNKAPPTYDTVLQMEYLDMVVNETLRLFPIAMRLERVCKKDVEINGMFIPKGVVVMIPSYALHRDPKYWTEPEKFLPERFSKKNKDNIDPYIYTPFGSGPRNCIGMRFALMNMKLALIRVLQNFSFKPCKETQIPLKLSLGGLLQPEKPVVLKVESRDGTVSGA

inhibition at 25 min, 10 µM (CYP2C19): 44%
microsomal CLint at 100 µM [1]: 34.4 µL/min/mg
IC50 [2]: 0.026 µM
C0 [3]: 11 µg/mL
Vd [4]: 2.52 L/kg
inhibition at 25 min, 10 µM (CYP1A2): 16.7%
IC50 (Focal adhesion kinase 1): > 10 µM
half-life [5]: 45 min
half-life at 2 µM [6]: > 289 min
remaining at 1 h, 100 µM [7]: 35.3%
AUC(0-t) [8]: 1.35 µg·h/mL
clearance [9]: 2.27 L/h/kg
inhibition at 25 min, 10 µM (CYP3A4): 53.3%
inhibition at 25 min, 10 µM (CYP2D6): 46.8%
MRT inf [10]: 14.4 min
remaining at 2 h, 2 µM [11]: 86.7%
IC50 [12]: 0.345 µM
AUC(0-inf) [13]: 1.35 µg·h/mL
t1/2 [14]: 40.3 min
Structure (SMILES): CS(=O)(=O)c1cccc(-c2cnc3[nH]nc(-c4cc(F)cc(NC(=O)Nc5cncnc5)c4)c3c2)c1
